Assay results taken from ChEMBL document CHEMBL1201862, “PubChem BioAssay data set” (2004).
Active and inactive are the calls of the source.
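For EC50 in this document: stress induced by proteasome inhibitor MG132 added 30 min after compound; luciferase reporter driven by HSF1 response element in NIH3T3 cells; actives raise luminescence as potentiators of the MG132 stress response.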

What follows are molecules tested against T1, Caspase-6 (Homo sapiens, UniProt P55212) (assay: human caspase-6 inhibitors, dose response, biochemical, VEID-R110 fluorescence, cherry-pick (AID 720632)). Conditions: not given.
T1 sequence (P55212 whole entry): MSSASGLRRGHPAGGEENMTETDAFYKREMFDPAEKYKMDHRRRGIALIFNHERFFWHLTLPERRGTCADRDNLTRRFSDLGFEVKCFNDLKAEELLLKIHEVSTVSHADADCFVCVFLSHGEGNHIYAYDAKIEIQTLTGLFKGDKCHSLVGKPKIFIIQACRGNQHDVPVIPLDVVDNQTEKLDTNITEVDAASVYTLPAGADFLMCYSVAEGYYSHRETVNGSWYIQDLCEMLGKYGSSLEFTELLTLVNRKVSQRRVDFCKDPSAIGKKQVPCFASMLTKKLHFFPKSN
In the case of `O=C(O)C/C(=C\c1cc(Cl)c2c(c1)OCO2)c1nc2ccccc2s1`, the AC50 is reported as 7.56 µM (active).
In the case of `CN(C)c1ccc2c(c1)[C@@H]1C[C@@H](CC(=O)N3CCOCC3)O[C@@H](CO)[C@@H]1O2`, the AC50 is reported as 42.4 µM (active).
With `CSc1ccccc1NC(=O)CN(C)C(=O)COc1cccc2cccnc12` the AC50 was 29.5 µM (active).
With `CC(=O)N(C)c1ccc(NC(=O)Cc2cccs2)cc1` the AC50 was 31.8 µM (active).

The molecules below were run against Cytochrome P450 3A4 (Homo sapiens, UniProt P08684). Conditions: not given.
Chain of Cytochrome P450 3A4 (P08684 whole entry): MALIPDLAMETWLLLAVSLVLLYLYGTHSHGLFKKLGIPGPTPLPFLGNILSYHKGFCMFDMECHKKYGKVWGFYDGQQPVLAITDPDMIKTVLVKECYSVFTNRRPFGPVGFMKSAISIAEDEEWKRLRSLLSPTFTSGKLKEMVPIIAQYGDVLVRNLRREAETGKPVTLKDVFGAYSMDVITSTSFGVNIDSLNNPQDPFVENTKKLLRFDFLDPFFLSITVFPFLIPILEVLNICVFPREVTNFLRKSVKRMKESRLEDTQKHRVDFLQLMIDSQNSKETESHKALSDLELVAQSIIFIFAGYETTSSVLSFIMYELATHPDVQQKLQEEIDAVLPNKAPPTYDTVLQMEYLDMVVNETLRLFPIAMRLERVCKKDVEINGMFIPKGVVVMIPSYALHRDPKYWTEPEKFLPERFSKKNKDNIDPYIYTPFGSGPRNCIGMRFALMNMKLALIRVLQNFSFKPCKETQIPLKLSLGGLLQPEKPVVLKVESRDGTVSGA
For `CNc1ccnc(-c2c(C)noc2C)n1`, the AC50 was 39.8 µM (inconclusive).
`CCN(CC)CCN1C(=O)C(O)=C(C(=O)c2ccc(OC)cc2)C1c1cccs1` (configuration not stated) was tested, and the AC50 was 17.8 µM (inconclusive).

These molecules were tested against DNA dC->dU-editing enzyme APOBEC-3A (Homo sapiens, UniProt P31941) (assay: Dose Response confirmation of small molecule APOBEC3A DNA Deaminase Inhibitors via a fluorescence-based single-stranded DNA deaminase assay. [Related pubchem assays (depositor defined):AID493011, AID493024]). Conditions: not given.
Chain of DNA dC->dU-editing enzyme APOBEC-3A (P31941 whole entry): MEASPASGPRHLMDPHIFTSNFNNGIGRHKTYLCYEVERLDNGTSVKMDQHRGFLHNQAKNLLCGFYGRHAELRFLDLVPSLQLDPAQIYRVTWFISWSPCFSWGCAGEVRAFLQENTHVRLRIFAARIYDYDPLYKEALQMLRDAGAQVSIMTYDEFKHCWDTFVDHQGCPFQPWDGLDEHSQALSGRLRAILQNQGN
Assay type: functional
For `O=C(NCCOc1ccccc1)c1nc[nH]n1`, the IC50 was 6.18 µM (active).
With `CCN1C(NCCCCO)=N[C@@H](c2cccc(C(F)(F)F)c2)C(C(=O)OC)=C1C` the IC50 was 2.59 µM (active).
For `COc1cc(Nc2cccc[n+]2C)cc(OC)c1OC`, the IC50 was 3.48 µM (active).
With `CC[N+](C)(CC)CC(=O)OCC1C(C)C=C(C)CC1C` (configuration not stated) the IC50 was 1.31 µM (active).
With `CN1CCC(N(C)S(=O)(=O)c2ccc(NC(=O)c3ccc(S(=O)(=O)N(C)C)cc3)cc2)CC1` the IC50 was 13.9 µM (active).
`Cc1cccc(C)c1OCC(=O)NCc1nnc(SCC(=O)NC2CCCCC2C)n1C` (configuration not stated) was tested, and the IC50 was 2.78 µM (active).
With `CC[C@]12C=CCN3CCC4(c5cc(Br)c(OC)cc5N(C)C4[C@@](O)(C(=O)OC)[C@@H]1OC(C)=O)C32` (some centres not stated) the IC50 was 2.14 µM (active).
In the case of `CCN(CC)CCNC(=O)c1ccc(NC(=O)C2CC(=O)N(c3ccc4c(c3)OCCO4)C2)cc1` (configuration not stated), the IC50 is reported as 7.53 µM (active).
With `CC(C)C(NC(=O)c1ccc2c(c1)OCO2)C(=O)N/N=C\c1ccco1` (configuration not stated) the IC50 was > 100 µM (inactive).

The molecules below were run against Cytochrome P450 2C9 (Homo sapiens, UniProt P11712). Conditions: not given.
Chain of Cytochrome P450 2C9 (P11712 whole entry): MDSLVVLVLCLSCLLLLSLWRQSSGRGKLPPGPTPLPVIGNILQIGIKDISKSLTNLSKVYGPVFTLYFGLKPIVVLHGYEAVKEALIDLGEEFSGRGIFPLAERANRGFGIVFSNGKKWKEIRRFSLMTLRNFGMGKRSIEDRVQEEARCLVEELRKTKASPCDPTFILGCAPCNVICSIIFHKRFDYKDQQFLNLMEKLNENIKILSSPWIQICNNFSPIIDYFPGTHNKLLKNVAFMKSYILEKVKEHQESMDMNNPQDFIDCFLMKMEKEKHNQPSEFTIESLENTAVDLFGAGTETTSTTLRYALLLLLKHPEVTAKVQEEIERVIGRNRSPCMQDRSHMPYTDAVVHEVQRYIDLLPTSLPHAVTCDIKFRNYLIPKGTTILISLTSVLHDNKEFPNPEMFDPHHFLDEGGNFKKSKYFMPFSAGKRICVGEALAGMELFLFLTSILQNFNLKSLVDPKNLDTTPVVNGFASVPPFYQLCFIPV
In the case of `CC(C)(C)C(=O)NNC(=O)CCCOc1ccc(Cl)cc1Cl`, the AC50 is reported as “inconclusive”.
In the case of `CNc1ccnc(-c2c(C)noc2C)n1`, the AC50 is reported as “inconclusive”.
For `O=C1OCc2cccc3cccc1c23`, the AC50 was “inconclusive”.
For `CCN(CC)CCN1C(=O)C(O)=C(C(=O)c2ccc(OC)cc2)C1c1cccs1` (configuration not stated), the AC50 was “inconclusive”.

The molecules below were run against Cytochrome P450 2C19 (Homo sapiens, UniProt P33261) (assay: Cytochrome panel assay with activity outcomes. Panel member name: p450-cyp2c19 Compounds with AC50 equal or less than 10 uM are considered active). Conditions: not given.
Chain of Cytochrome P450 2C19 (P33261 whole entry): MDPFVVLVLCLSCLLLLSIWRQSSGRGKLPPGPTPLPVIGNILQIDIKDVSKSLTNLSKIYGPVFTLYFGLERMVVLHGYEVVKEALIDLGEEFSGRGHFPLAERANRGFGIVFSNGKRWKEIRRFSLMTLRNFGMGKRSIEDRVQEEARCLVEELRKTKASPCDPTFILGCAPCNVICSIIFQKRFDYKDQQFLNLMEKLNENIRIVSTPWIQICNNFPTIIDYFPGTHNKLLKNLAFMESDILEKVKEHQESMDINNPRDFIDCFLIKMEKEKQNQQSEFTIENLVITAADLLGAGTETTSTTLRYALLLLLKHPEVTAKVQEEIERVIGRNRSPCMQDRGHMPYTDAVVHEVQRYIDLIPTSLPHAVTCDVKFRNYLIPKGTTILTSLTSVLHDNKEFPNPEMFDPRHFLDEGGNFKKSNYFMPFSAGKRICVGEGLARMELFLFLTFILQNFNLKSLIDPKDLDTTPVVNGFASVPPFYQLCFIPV
Assay type: functional
`CNc1ccnc(-c2c(C)noc2C)n1` was tested, and the AC50 was “inconclusive”.

Same assay, conditions: read-out: AC50
For `O=C1OCc2cccc3cccc1c23`, the AC50 was 39.8 µM (inconclusive).

These molecules were tested against DNA dC->dU-editing enzyme APOBEC-3G (Homo sapiens, UniProt Q9HC16). Conditions: not given.
Chain of DNA dC->dU-editing enzyme APOBEC-3G (Q9HC16 whole entry): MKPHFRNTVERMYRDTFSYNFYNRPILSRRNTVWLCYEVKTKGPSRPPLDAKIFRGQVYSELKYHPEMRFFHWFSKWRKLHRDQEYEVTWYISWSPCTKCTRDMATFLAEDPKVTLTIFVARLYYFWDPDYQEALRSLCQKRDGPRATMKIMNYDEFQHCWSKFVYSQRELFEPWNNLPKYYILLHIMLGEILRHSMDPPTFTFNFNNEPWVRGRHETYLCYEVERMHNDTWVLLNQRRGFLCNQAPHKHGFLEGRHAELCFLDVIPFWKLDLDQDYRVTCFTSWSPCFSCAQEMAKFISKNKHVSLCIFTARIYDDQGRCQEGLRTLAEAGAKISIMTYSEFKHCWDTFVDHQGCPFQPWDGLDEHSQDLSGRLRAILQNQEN
Assay type: functional
In the case of `O=C(NCCOc1ccccc1)c1nc[nH]n1`, the IC50 is reported as 18.7 µM (active).
In the case of `CCN1C(NCCCCO)=N[C@@H](c2cccc(C(F)(F)F)c2)C(C(=O)OC)=C1C`, the IC50 is reported as 2.44 µM (active).
With `COc1cc(Nc2cccc[n+]2C)cc(OC)c1OC` the IC50 was 2.85 µM (active).
With `CC[N+](C)(CC)CC(=O)OCC1C(C)C=C(C)CC1C` (configuration not stated) the IC50 was 2.04 µM (active).
For `CN1CCC(N(C)S(=O)(=O)c2ccc(NC(=O)c3ccc(S(=O)(=O)N(C)C)cc3)cc2)CC1`, the IC50 was 16 µM (active).
With `Cc1cccc(C)c1OCC(=O)NCc1nnc(SCC(=O)NC2CCCCC2C)n1C` (configuration not stated) the IC50 was 6.2 µM (active).
For `CC[C@]12C=CCN3CCC4(c5cc(Br)c(OC)cc5N(C)C4[C@@](O)(C(=O)OC)[C@@H]1OC(C)=O)C32` (some centres not stated), the IC50 was 1.81 µM (active).
In the case of `CCN(CC)CCNC(=O)c1ccc(NC(=O)C2CC(=O)N(c3ccc4c(c3)OCCO4)C2)cc1` (configuration not stated), the IC50 is reported as 8.16 µM (active).
`CC(C)C(NC(=O)c1ccc2c(c1)OCO2)C(=O)N/N=C\c1ccco1` (configuration not stated) was tested, and the IC50 was 15.9 µM (active).

The molecules below were run against T2, Cytochrome P450 1A2 (Homo sapiens, UniProt P05177). Conditions: not given.
T2 sequence (P05177 whole entry): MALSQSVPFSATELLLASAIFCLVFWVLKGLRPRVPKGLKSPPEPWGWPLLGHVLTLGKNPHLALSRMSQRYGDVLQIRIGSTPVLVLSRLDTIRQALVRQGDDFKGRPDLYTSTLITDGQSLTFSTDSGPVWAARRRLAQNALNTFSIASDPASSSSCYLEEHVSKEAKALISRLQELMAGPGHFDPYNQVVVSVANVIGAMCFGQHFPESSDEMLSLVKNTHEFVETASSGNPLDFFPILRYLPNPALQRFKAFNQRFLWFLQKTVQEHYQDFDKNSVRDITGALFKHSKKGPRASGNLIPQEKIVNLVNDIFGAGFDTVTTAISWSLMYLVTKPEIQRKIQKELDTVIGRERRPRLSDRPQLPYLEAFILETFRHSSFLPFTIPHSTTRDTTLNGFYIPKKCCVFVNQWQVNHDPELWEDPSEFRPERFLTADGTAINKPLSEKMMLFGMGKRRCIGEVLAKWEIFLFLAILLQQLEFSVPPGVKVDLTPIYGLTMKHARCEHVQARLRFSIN
In the case of `CC(C)(C)C(=O)NNC(=O)CCCOc1ccc(Cl)cc1Cl`, the AC50 is reported as 25.1 µM (inconclusive).

The molecules below were run against T3, Heat shock factor protein 1 (Mus musculus, UniProt P38532) (assay: HSF1 potentiators in luciferase reporter cells, confirmation, cell-based, NIH3T3, luminescence, dose retest (AID 435004)). Conditions: not given.
T3 sequence (P38532 whole entry): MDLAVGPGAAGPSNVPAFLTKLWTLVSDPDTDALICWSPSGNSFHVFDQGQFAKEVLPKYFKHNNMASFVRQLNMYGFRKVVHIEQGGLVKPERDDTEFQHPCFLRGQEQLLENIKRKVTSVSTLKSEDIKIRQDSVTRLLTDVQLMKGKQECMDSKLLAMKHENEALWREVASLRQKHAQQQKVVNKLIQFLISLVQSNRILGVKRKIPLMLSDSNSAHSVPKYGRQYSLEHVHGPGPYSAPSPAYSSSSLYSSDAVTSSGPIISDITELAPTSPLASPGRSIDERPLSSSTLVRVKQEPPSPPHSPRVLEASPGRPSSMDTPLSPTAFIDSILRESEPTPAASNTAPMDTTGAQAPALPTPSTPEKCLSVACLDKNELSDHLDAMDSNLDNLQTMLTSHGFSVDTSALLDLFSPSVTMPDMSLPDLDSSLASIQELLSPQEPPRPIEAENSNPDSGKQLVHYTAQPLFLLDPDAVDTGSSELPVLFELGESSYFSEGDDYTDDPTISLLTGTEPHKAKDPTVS
Assay type: functional
In the case of `Cc1cccc(C)c1OCC(=O)NCc1nnc(SCC(=O)NC2CCCCC2C)n1C` (configuration not stated), the EC50 is reported as > 260 µM (inactive).
